From US6599893B2, “Cephalosporin antibiotics and prodrugs thereof” (Essential Therapeutics, Inc., priority 2000, dated 2003)
≈ marks a conversion by molar mass, not a printed value. Where two headings read alike, the source gives them in different places.

How the values were obtained:
[1] = test system: Enterococcus faecium ATCC 35667; assay: Broth microdilution MIC, E. faecium ATCC 35667; type: cell-based
Procedure: (§1) Compounds were evaluated for antimicrobial activity against a panel of bacterial strains using a broth microdilution assay performed as recommended by the NCCLS (NCCLS (National Committee for Clinical Laboratory Standards). 1993. Methods for dilution antimicrobial susceptibility tests for bacteria that grow aerobically. NCCLS Document M7-A3, 1993. In: NCCLS Antimicrobial Susceptibility Testing, 3rd Ed.)
(§2) The minimum inhibitory concentration (MIC) is defined as the lowest concentration of a compound that prevents the growth of the bacteria.

[2] = test system: Staphylococcus aureus COL (MRSA, non-β-lactamase producing); assay: Broth microdilution MIC, S. aureus COL; type: cell-based; conditions: for MIC: read-out: MIC S. a. COL
Procedure: as §1, §2

[3] = test system: Staphylococcus aureus ATCC 29213 (MSSA); assay: Broth microdilution MIC, S. aureus ATCC 29213; type: cell-based; conditions: for MIC: read-out: MIC S. a. 29213
Procedure: as §1, §2

[4] = test system: Staphylococcus aureus 76 (MRSA, β-lactamase producing); assay: Broth microdilution MIC, S. aureus 76; type: cell-based; conditions: for MIC: read-out: MIC S. a. 76
Procedure: as §1, §2

[5] = Human serum binding by ultrafiltration; type: in vitro ADME; conditions: pooled human serum, ultrafiltration, 10 minutes at 37° C.
Procedure: Binding of several representative compounds of this invention in pooled human serum was determined using ultrafiltration. Compounds were incubated in serum for 10 minutes at 37° C. in a shaking water bath. Serum ultrafiltrate was accomplished by centrifugation (Amicon Centrifree) for 20 minutes at 25° C. Compound content in the ultrafiltrate was quantified by HPLC. An ultrafilrate obtained by following the same procedure with no added compound was used as a standard.

[6] = test system: Enterococcus faecalis ATCC 29212; assay: Broth microdilution MIC, E. faecalis ATCC 29212; type: cell-based
Procedure: as §1, §2

[7] = test system: Staphylococcus aureus Smith (MSSA); assay: Broth microdilution MIC, S. aureus Smith; type: cell-based; conditions: for MIC: read-out: MIC S. a. Smith
Procedure: as §1, §2

S. aureus strain Smith = assay: Experimental infection of mice, ED50; type: in vivo, Swiss-Webster mice; conditions: for ED50: Staphylococcus aureus, read-out: ED50, mg/kg (95% C.I.)
Procedure: Staphylococcus aureus strain Smith (ATCC 13709, penicillin-susceptible) or strain 76 (methicillin-resistant) was cultured overnight at 37° C. in brain-heart infusion broth (BHIB). The following morning, a portion of the culture was transferred to fresh BHIB and incubated for an additional 4-5 hours at 37° C. The cells were harvested by centrifugation, washed twice with PBS, and adjusted to the desired inoculum amount. The cell suspension was mixed with an equal volume of sterile 14% hog-gastric mucin (Comber K. R.; Osborne C. D.; Sutherland R.: Comparative effects of amoxicillin and ampicillin in the treatment of experimental mouse infections. Antimicrobial Agents and Chemotherapy 7(2):179-185, 1975). The inoculum was kept in an ice bath until used (preferably in less than one hour).
Male Swiss-Webster mice were challenged intraperitoneally with 0.5 mL of a bacterial suspension of S. aureus strain Smith (LD50). Test compounds were administered subcutaneously in 0.1 mL volumes immediately after inoculation and 2 hours later. […] The total dose associated with 50% survival (ED50) was determined using the probit method (Pasiello, A. P., J. M. Essigmann, and G. N. Wogan.: Rapid and accurate determination of median lethal dose (LD50) and its error with a small computer. J Toxicol. Environ. Health. 3:797-809, 1977).

[8] = Human serum binding estimated from serum effect on MIC (HSB*); type: in vitro ADME; conditions: MIC against S. aureus ATCC 29213 in growth medium vs 1:1 growth medium and human serum
Text: An estimate of human serum binding (HSB*) was obtained for some compounds using the MIC values against S. aureus ATCC 29213 determined in growth medium (GM) and in a 1:1 mixture of growth medium and human serum (GM+HS):
HSB*=(MICGM+HS−MICGM)/MICGM 100%

[9] = ATCC35667, Enterococcus faecium ATCC 35667, read-out: MIC E. f. 35667
[10] = Staphylococcus aureus COL (MRSA, non-β-lactamase producing)
[11] = Staphylococcus aureus ATCC 29213 (MSSA)
[12] = Staphylococcus aureus 76 (MRSA, β-lactamase producing)
[13] = ATCC29212, Enterococcus faecalis ATCC 29212, read-out: MIC E. f. 29212
[14] = Staphylococcus aureus Smith (MSSA)
[15] = 50% efficacious dose, S. aureus Smith, mice challenged intraperitoneally, compound subcutaneously at 0 and 2 h, total dose, 72 h survival
[16] = Enterococcus faecium ATCC 35667
[17] = Enterococcus faecalis ATCC 29212

Nc1nc(/C(=N/O)C(=O)N[C@@H]2C(=O)N3C(C(=O)O)=C(Sc4ccncc4CO)CS[C@H]23)c(Cl)s1 [Compound 28] showed an MIC [1, 9] of 1 µg/mL (≈ 1.84 µM), an MIC [2, 10] of 2 µg/mL (≈ 3.68 µM) and an MIC [3, 11] of 0.5 µg/mL (≈ 0.921 µM). For the same compound, the MIC [4, 12] was 2 µg/mL (≈ 3.68 µM), the “HSB, human serum binding” value [5] was greater than 99% and the MIC [6, 13] was 0.25 µg/mL (≈ 0.46 µM). For the same compound, the MIC [7, 14] was 0.125 µg/mL (≈ 0.23 µM).
For Nc1nc(/C(=N/O)C(=O)N[C@@H]2C(=O)N3C(C(=O)O)=C(Sc4ccncc4CSc4cccnc4N)CS[C@H]23)c(Cl)s1 [Compound 29], the “ED50, mg/kg (95% C.I.)” value (S. aureus strain Smith; [15]) was greater than 5 mg/kg, the “MIC E. f. 35667” value [1, 16] was 0.5 µg/mL (≈ 0.768 µM) and the “MIC S. a. COL” value [2, 10] was 1 µg/mL (≈ 1.54 µM). The “MIC S. a. 29213” value [3, 11] was 0.125 µg/mL (≈ 0.192 µM), the “MIC S. a. 76” value [4, 12] was 2 µg/mL (≈ 3.07 µM) and the “MIC E. f. 29212” value [6, 17] was 0.125 µg/mL (≈ 0.192 µM). For the same compound, the “MIC S. a. Smith” value [7, 14] was 0.25 µg/mL (≈ 0.384 µM).
With Cc1nnsc1SC1=C(C(=O)O)N2C(=O)[C@@H](NC(=O)C(=NO)c3nc(N)sc3Cl)C2SC1 (stereo partly drawn) [Compound 34, (7R)-7-[2-(2-Amino-5-chlorothiazol-4-yl)-2-hydroxyiminoacetylamino]-3-(4-methyl-[1,2,3]thiadiazol-5-ylsulfanyl)-8-oxo-5-thia-1-aza-bicyclo[4.2.0]oct-2-ene-2-carboxylic acid] the MIC [1, 9] was 2 µg/mL (≈ 3.75 µM), the MIC [2, 10] was 2 µg/mL (≈ 3.75 µM) and the MIC [3, 11] was 0.125 µg/mL (≈ 0.234 µM). For the same compound, the MIC [4, 12] was 2 µg/mL (≈ 3.75 µM), the “HSB*, human serum binding calculated using serum effect on MIC” value (from here on “HSB*, human serum binding calculated”) [8] was “— (98%)” and the MIC [6, 13] was 0.25 µg/mL (≈ 0.468 µM). The MIC [7, 14] was 0.125 µg/mL (≈ 0.234 µM).
With Nc1nc(/C(=N/O)C(=O)N[C@@H]2C(=O)N3C(C(=O)O)=C(Sc4cccc5nncn45)CS[C@H]23)c(Cl)s1 [Compound 35] the “MIC E. f. 35667” value [1, 16] was 4 µg/mL (≈ 7.23 µM), the “MIC S. a. COL” value [2, 10] was 4 µg/mL (≈ 7.23 µM) and the “MIC S. a. 29213” value [3, 11] was 0.5 µg/mL (≈ 0.904 µM). The “MIC S. a. 76” value [4, 12] was 4 µg/mL (≈ 7.23 µM), the “HSB*, human serum binding calculated” value [8] was “— (88%)” and the “MIC E. f. 29212” value [6, 17] was 0.25 µg/mL (≈ 0.452 µM). The “MIC S. a. Smith” value [7, 14] was 0.25 µg/mL (≈ 0.452 µM).
With Nc1nc(C(=NO)C(=O)N[C@@H]2C(=O)N3C(C(=O)O)=C(Sc4cnns4)CSC23)ns1 (stereo partly drawn) [Compound 39, (7R)-7-[2-(5-Amino-[1,2,4]thiadiazol-3-yl)-2-hydroxyimino-acetylamino]-8-oxo-3-([1,2,3]thiadiazol-5-ylsulfanyl)-5-thia-1-aza-bicyclo[4.2.0]oct-2-ene-2-carboxylic acid] the MIC [1, 9] was 2 µg/mL (≈ 4.11 µM), the MIC [2, 10] was 8 µg/mL (≈ 16.4 µM) and the MIC [3, 11] was 0.125 µg/mL (≈ 0.257 µM). For the same compound, the MIC [4, 12] was 8 µg/mL (≈ 16.4 µM), the “HSB*, human serum binding calculated” value [8] was “— (94%)” and the MIC [6, 13] was 1 µg/mL (≈ 2.06 µM). For the same compound, the MIC [7, 14] was 0.125 µg/mL (≈ 0.257 µM).
In the case of Nc1nc(C(=NO)C(=O)N[C@@H]2C(=O)N3C(C(=O)O)=C(Sc4cnns4)CSC23)c(Cl)s1 (stereo partly drawn) [Compound 43, (7R)-7-[2-(2-Amino-5-chlorothiazol-4-yl)-2-hydroxyiminoacetylamino]-8-oxo-3-([1,2,3]thiadiazol-5-ylsulfanyl)-5-thia-1-aza-bicyclo[4.2.0]oct-2-ene-2-carboxylic acid], the MIC [1, 9] is reported as 0.5 µg/mL (≈ 0.962 µM), the MIC [2, 10] is reported as 0.5 µg/mL (≈ 0.962 µM) and the MIC [3, 11] is reported as less than 0.06 µg/mL. For the same compound, the MIC [4, 12] was 1 µg/mL (≈ 1.92 µM), the “HSB, human serum binding” value [5] was 96% (−) and the MIC [6, 13] was 0.125 µg/mL (≈ 0.24 µM). The MIC [7, 14] was 0.06 µg/mL (≈ 0.115 µM).
C[C@@H](O)[C@H]1C(=O)N2C(C(=O)O)=C(SCCN=CN)C[C@H]12 [Imipenem, reference compound] gave an ED50 (S. aureus strain Smith; [15]) of 0.15 mg/kg, an MIC [1, 9] of 4 µg/mL (≈ 13.4 µM) and an MIC [2, 10] of 16 µg/mL (≈ 53.4 µM). For the same compound, the MIC [3, 11] was less than 0.02 µg/mL, the MIC [4, 12] was 32 µg/mL (≈ 107 µM) and the MIC [6, 13] was 1 µg/mL (≈ 3.34 µM). For the same compound, the MIC [7, 14] was 0.25 µg/mL (≈ 0.835 µM).
With CN[C@H](CC(C)C)C(=O)N[C@H]1C(=O)N[C@@H](CC(N)=O)C(=O)N[C@H]2C(=O)N[C@H]3C(=O)N[C@H](C(=O)N[C@H](C(=O)O)c4cc(O)cc(O)c4-c4cc3ccc4O)[C@H](O)c3ccc(c(Cl)c3)Oc3cc2cc(c3O[C@@H]2O[C@H](CO)[C@@H](O)[C@H](O)[C@H]2O[C@H]2C[C@](C)(N)[C@H](O)[C@H](C)O2)Oc2ccc(cc2Cl)[C@H]1O [Vancomycin, reference compound] the ED50 (S. aureus strain Smith) was 2.1 mg/kg, the MIC ([1]; Enterococcus faecium, ATCC35667, read-out: MIC E. f. 35667) was 0.25 µg/mL (≈ 0.173 µM) and the MIC ([2]; Staphylococcus aureus, MRSA) was 1 µg/mL (≈ 0.69 µM). The MIC ([3]; Staphylococcus aureus) was 0.5 µg/mL (≈ 0.345 µM), the MIC ([4]; Staphylococcus aureus, MRSA) was 0.5 µg/mL (≈ 0.345 µM) and the MIC ([6]; Enterococcus faecalis, ATCC29212, read-out: MIC E. f. 29212) was 1 µg/mL (≈ 0.69 µM). The MIC ([7]; Staphylococcus aureus, MSSA) was 0.5 µg/mL (≈ 0.345 µM).
